Assay results taken from doi:10.1101/2024.08.19.608619, “Discovery of potent SARS-CoV-2 nsp3 macrodomain inhibitors uncovers lack of translation to cellular antiviral response” (bioRxiv, 2024).
Converted amounts (≈) assume the structure as drawn. “And” between values parts separate entries of the source, which are not always exact repeats. Identical values can stand only once. Like-named read-outs stand apart in the source and are kept apart here.

Tests used:
[1] = Hepatic microsomal stability, MLM; assay type: in vitro ADME
LogD = conditions: pH 7.4
[2] = Hepatic microsomal stability, HLM; assay type: in vitro ADME, human; conditions: In vitro human liver microsomal stability; for perc_remaining_no_cofactor: no cofactor
[3] = Permeability Papp (AB) MDR1/MDCKII; conditions: In vitro MDR1-MDCKII permeability; for papp_a_to_b_mean: A to B; for perc_recovery_a_to_b_mean: recovery A to B
[4] = In vitro kinetic solubility; conditions: In vitro kinetic solubility, ph 7.4
SARS-CoV-2 nsp3-mac1 [5] = target: T1, SARS-CoV-2 nsp3-mac1 (Severe acute respiratory syndrome coronavirus 2, UniProt P0DTD1); test: biochemical; set-up: SARS-CoV-2 nsp3 macrodomain TR-FRET single point, per cent inhibition, n=2
SARS-CoV-2 nsp3-mac1 [6] = target: T1, SARS-CoV-2 nsp3-mac1; test: biochemical; assay type: biochemical; conditions: SARS-CoV-2 nsp3 macrodomain TR-FRET single point
[7] = In vitro mouse liver microsomal stability
[8] = In vitro mouse liver microsomal stability, no cofactor
[9] = In vitro mouse liver microsomal stability; no cofactor
[10] = read-out: perc_inhibition_mean, batch_name=ASAP-0000472-001
[11] = read-out: perc_inhibition_mean, batch_name=ASAP-0000473-001
[12] = read-out: perc_inhibition_mean, batch_name=ASAP-0000474-001
[13] = read-out: perc_inhibition_mean, batch_name=ASAP-0000475-001
[14] = read-out: perc_inhibition_mean, batch_name=ASAP-0000476-001
[15] = read-out: perc_inhibition_mean, batch_name=ASAP-0000477-001
[16] = read-out: perc_inhibition_mean, batch_name=ASAP-0000478-001
[17] = read-out: perc_inhibition_mean, batch_name=ASAP-0000479-001
[18] = read-out: perc_inhibition_mean, batch_name=ASAP-0000480-001
[19] = read-out: perc_inhibition_mean, batch_name=ASAP-0000481-001
[20] = read-out: perc_inhibition_mean, batch_name=ASAP-0000482-001

Row | SMILES | clint [1, 7] | perc_remaining [1, 7] | t_half [1, 7] | logd (LogD; In vitro LogD) | clint [2] | perc_remaining [2] | t_half [2] | perc_remaining_no_cofactor [2] | papp_a_to_b_mean ([3]; mean) | perc_recovery_a_to_b_mean ([3]; mean) | solubility_mean [4] | perc_inhibition_mean (SARS-CoV-2 nsp3-mac1 [6]; concentration 49.75 uM) [%] | perc_inhibition_mean (SARS-CoV-2 nsp3-mac1 [6]; concentration 99.5 uM) [%] | further results
1 | CC(C(=O)O)C(NC(=O)c1ncnc2[nH]ccc12)c1ccc(Br)cc1 (mixture of isomers) [ASAP-0008445] | 4.0 µL/min/mg | 94.0% | 433.2 min | 0.5 | 5.0 µL/min/mg | 103.0% | 338.5 min | 110.0% | 1.4 ×10⁻⁶ cm/s | 93.4% | 386 µM |  |  | perc_remaining_no_cofactor [1, 8]: 109.0%
2 | COc1ccc(C(NC(=O)c2ncnc3[nH]ccc23)C(C)c2nnn[nH]2)cc1 (mixture of isomers) [ASAP-0010744] | 1.0 µL/min/mg | 99.0% | 2882.2 min | 0.0 | 2.0 µL/min/mg | 92.0% | 798.7 min | 103.0% |  |  | ≥ 400 µM |  |  | perc_remaining_no_cofactor [1, 8]: 92.0%; papp_a_to_b_mean ([3]; no inhibitor): 1.13 ×10⁻⁶ cm/s; perc_recovery_a_to_b_mean ([3]; no inhibitor): 93.6%
3 | COc1ccc2c(c1)CCN(c1ncnc3[nH]ccc13)[C@H]2C(C)C (racemic) [ASAP-0000502] | 321.0 µL/min/mg | 1.0% | 5.2 min | 4.33 | 60.0 µL/min/mg | 38.0% | 27.8 min | 103.0% | 7.0 ×10⁻⁶ cm/s | 32.0% | 14 µM (≈ 4.51 µg/mL) |  |  | perc_remaining_no_cofactor [1, 9]: 83.0%
4 | COc1ccc([C@H](CC(=O)O)NC(=O)c2ncnc3[nH]ccc23)cc1 (racemic) [ASAP-0000591] | 2.0 µL/min/mg | 94.0% | 686.4 min | -0.38 | 7.0 µL/min/mg | 87.0% | 240.4 min | 88.0% | 1.7 ×10⁻⁶ cm/s | 90.0% | ≥ 400 µM |  |  | perc_remaining_no_cofactor [1, 9]: 96.0%
5 | O=C(Nc1cccc2c(C(=O)N[C@H]3c4ccccc4C[C@H]3C(=O)O)c[nH]c12)NC1CC1 (racemic) [ASAP-0000627] | 4.0 µL/min/mg | 95.0% | 453.6 min | -0.05 | 6.0 µL/min/mg | 88.0% | 279.8 min | 86.0% | 1.8 ×10⁻⁶ cm/s | 81.0% | ≥ 400 µM |  |  | perc_remaining_no_cofactor [1, 9]: 105.0%
6 | CC(C)[C@H](Nc1ncnc2[nH]cc(C(N)=O)c12)c1ccc2c(c1)OCCO2 (racemic) [ASAP-0008399] | 142.0 µL/min/mg | 9.0% | 11.7 min | 3.2 | 143.0 µL/min/mg | 9.0% | 11.7 min | 110.0% | 11.1 ×10⁻⁶ cm/s | 90.0% | 375 µM (≈ 138 µg/mL) |  |  | perc_remaining_no_cofactor [1, 8]: 98.0%
7 | CC(C)[C@H](Nc1ncnc2[nH]c(-c3cnn(C)c3C#N)cc12)c1ccc2c(c1)NC(=O)CO2 (racemic) [ASAP-0008576] | 177.0 µL/min/mg | 6.0% | 9.4 min | 4.1 | 100.0 µL/min/mg | 18.0% | 16.6 min | 93.0% | 3.07 ×10⁻⁶ cm/s | 80.1% | 69 µM (≈ 30.5 µg/mL) |  |  | perc_remaining_no_cofactor [1, 8]: 97.0%
8 | CC(C)(C)[C@H](Nc1ncnc2[nH]c(-c3cnn(CC(N)=O)c3)cc12)c1ccc2c(c1)OCCO2 (racemic) [ASAP-0008581] | 47.0 µL/min/mg | 46.0% | 35.2 min | 3.2 | 133.0 µL/min/mg | 11.0% | 12.6 min | 87.0% | 1.66 ×10⁻⁶ cm/s | 94.7% | 195 µM (≈ 90 µg/mL) |  |  | perc_remaining_no_cofactor [1, 8]: 107.0%
9 | CC(C)[C@H](Nc1ncnc2[nH]c(-c3cnn(CC(N)=O)c3)cc12)c1ccc2c(c1)NC(=O)CO2 (racemic) [ASAP-0008621] | 11.0 µL/min/mg | 84.0% | 155.8 min | 2.5 | 17.0 µL/min/mg | 73.0% | 99.2 min | 91.0% | 1.36 ×10⁻⁶ cm/s | 98.0% | 25 µM (≈ 11.5 µg/mL) |  |  | perc_remaining_no_cofactor [1, 8]: 102.0%
10 | Cn1ncc(-c2cc3c(N[C@H](c4ccc5c(n4)OCCO5)C(C)(C)C)ncnc3[nH]2)c1C#N (racemic) [ASAP-0008645] | 188.0 µL/min/mg and 209.0 µL/min/mg | 5.0% and 4.0% | 8.9 min and 8.0 min |  | 70.0 µL/min/mg and 81.0 µL/min/mg | 30.0% and 27.0% | 23.9 min and 20.6 min | 91.0% and 108.0% | 9.87 ×10⁻⁶ cm/s and 13.5 ×10⁻⁶ cm/s | 73.4% and 58.4% | 25 µM and 24 µM |  |  | perc_remaining_no_cofactor [1, 8]: 106.0%; perc_remaining_no_cofactor [1, 9]: 101.0%
11 | O=C(O)C[C@H](NC(=O)c1ncnc2[nH]ccc12)c1ccc(Br)cc1 [ASAP-0000136] |  |  |  | 0.22 |  |  |  |  |  |  |  |  |  | 
12 | c1nc(N[C@@H]2CCCc3c2cnn3C2CCCC2)c2cc[nH]c2n1 [ASAP-0000472] |  |  |  |  |  |  |  |  |  |  |  | 0.884 | 14.273 | inhibition at 49.75 µM (SARS-CoV-2 nsp3-mac1 [5]; [10]): 0.884%; inhibition at 99.5 µM (SARS-CoV-2 nsp3-mac1 [5]; [10]): 14.3%
13 | C[C@@H](Nc1ncnc2[nH]ccc12)c1cnn(CC2CCC2)c1 [ASAP-0000473] |  |  |  |  |  |  |  |  |  |  |  | -0.451 | 4.9 | inhibition at 49.75 µM (SARS-CoV-2 nsp3-mac1 [5]; [11]): -0.451%; inhibition at 99.5 µM (SARS-CoV-2 nsp3-mac1 [5]; [11]): 4.9%
14 | Cn1cc([C@H]2CCCCN2c2ncnc3[nH]ccc23)cn1 [ASAP-0000474] |  |  |  |  |  |  |  |  |  |  |  | 6.392 | 8.316 | inhibition at 49.75 µM (SARS-CoV-2 nsp3-mac1 [5]; [12]): 6.39%; inhibition at 99.5 µM (SARS-CoV-2 nsp3-mac1 [5]; [12]): 8.32%
15 | CC(C)[C@@H](CCN(C)C(=O)c1cc2c(s1)CC[C@H](C)C2)Nc1ncnc2[nH]ccc12 [ASAP-0000475] |  |  |  |  |  |  |  |  |  |  |  | -9.684 | -29.716 | inhibition at 49.75 µM (SARS-CoV-2 nsp3-mac1 [5]; [13]): -9.68%; inhibition at 99.5 µM (SARS-CoV-2 nsp3-mac1 [5]; [13]): -29.7%
16 | Cc1c([C@@H](C)Nc2ncnc3[nH]ccc23)cnn1-c1ccccc1 [ASAP-0000476] |  |  |  |  |  |  |  |  |  |  |  | 28.129 | 41.664 | inhibition at 49.75 µM (SARS-CoV-2 nsp3-mac1 [5]; [14]): 28.1%; inhibition at 99.5 µM (SARS-CoV-2 nsp3-mac1 [5]; [14]): 41.7%
17 | CC(C)[C@H]1N(c2ncnc3[nH]ccc23)CC12CCOCC2 [ASAP-0000477] |  |  |  |  |  |  |  |  |  |  |  | 27.65 | 47.993 | inhibition at 49.75 µM (SARS-CoV-2 nsp3-mac1 [5]; [15]): 27.6%; inhibition at 99.5 µM (SARS-CoV-2 nsp3-mac1 [5]; [15]): 48%
18 | CC(C)Cn1cc([C@H]2N(c3ncnc4[nH]ccc34)CC23CCOCC3)cn1 [ASAP-0000478] |  |  |  |  |  |  |  |  |  |  |  | -0.591 | -4.664 | inhibition at 49.75 µM (SARS-CoV-2 nsp3-mac1 [5]; [16]): -0.591%; inhibition at 99.5 µM (SARS-CoV-2 nsp3-mac1 [5]; [16]): -4.66%
19 | CC(C)[C@@H]1C(=O)NCCN1c1ncnc2[nH]ccc12 [ASAP-0000479] |  |  |  |  |  |  |  |  |  |  |  | 61.35 | 80.665 | inhibition at 49.75 µM (SARS-CoV-2 nsp3-mac1 [5]; [17]): 61.4%; inhibition at 99.5 µM (SARS-CoV-2 nsp3-mac1 [5]; [17]): 80.7%
20 | CC(C)[C@@H](CO)[C@@H](Nc1ncnc2[nH]ccc12)C(C)C [ASAP-0000480] |  |  |  |  |  |  |  |  |  |  |  | 6.651 | 13.057 | inhibition at 49.75 µM (SARS-CoV-2 nsp3-mac1 [5]; [18]): 6.65%; inhibition at 99.5 µM (SARS-CoV-2 nsp3-mac1 [5]; [18]): 13.1%
21 | CC(C)[C@@H](CCN(C)C(=O)C1CCc2ccccc2CC1)Nc1ncnc2[nH]ccc12 [ASAP-0000481] |  |  |  |  |  |  |  |  |  |  |  | -5.62 | -10.916 | inhibition at 49.75 µM (SARS-CoV-2 nsp3-mac1 [5]; [19]): -5.62%; inhibition at 99.5 µM (SARS-CoV-2 nsp3-mac1 [5]; [19]): -10.9%
22 | CC(C)[C@@H](Nc1ncnc2[nH]ccc12)C(=O)N(C)Cc1nnc2n1CCC2 [ASAP-0000482] |  |  |  |  |  |  |  |  |  |  |  | -8.89 | -6.138 | inhibition at 49.75 µM (SARS-CoV-2 nsp3-mac1 [5]; [20]): -8.89%; inhibition at 99.5 µM (SARS-CoV-2 nsp3-mac1 [5]; [20]): -6.14%
23 | CC(C)C(Nc1ncnc2[nH]ccc12)c1ccc2c(n1)OCCO2 (centres unmarked) [ASAP-0008270] |  |  |  |  |  |  |  |  |  |  |  |  |  | logd (LogD): 2.8
24 | CC(C)[C@@H](Nc1ncnc2[nH]ccc12)c1ccc2c(c1)OCCO2 [ASAP-0008279] |  |  |  | 3.0 |  |  |  |  |  |  |  |  |  | 
